# Test results as given in ChEMBL document CHEMBL1151681, “New Naphthalenyl Glucosides from the Roots of Juglans mandshurica” (J Nat Prod, 1996).
# Columns and labels:
# [1] = Cytotoxicity against human Hep3B cells by MTT assay; format: functional, cell-based, Hep 3B2
# [2] = test system: U-937; assay: Cytotoxicity against human U937 cells by MTT assay; format: functional, cell-based
SMILES,IC50 [1] [µg/mL],IC50 [2] [µg/mL]
O=C(OC[C@H]1O[C@@H](Oc2ccc(O)c3cccc(O)c23)[C@H](O)[C@@H](O)[C@@H]1O)c1cc(O)c(O)c(O)c1,> 100,30
COc1cc(C(=O)OC[C@H]2O[C@@H](Oc3ccc(O)c4cccc(O)c34)[C@H](O)[C@@H](O)[C@@H]2O)cc(OC)c1O,> 100,50
